# Experimental data as given in US20090042238A1, “Method of evaluating cell function, system for evaluating cell function, fluorescent microscope system, phototherapy method and phototherapy system” (NIKON CORPORATION, priority 2006, published 2009).
# System: mitochondria in living cells
# Assay: evaluation of cell function (phototoxic property) with confocal fluorescence microscope system
# Type: cell-based
# From the text: The following describes an example of the evaluation of cell function according to the present invention, performed with the confocal fluorescence microscope system of the First Embodiment.
# RH123, used as a fluorescent dye, was applied to the mitochondria in living cells to prepare a specimen. The specimen was two-dimensionally scanned by irradiating an argon laser (488 nm) emitted in a predetermined intensity from the excitation light source 11, so as to obtain a fluorescence image of one frame.
# FIG. 8(A) is the actual first fluorescence image obtained. Predetermined positions of the mitochondria (stained area) and the cellular cytoplasm (reference point) were specified by rectangular shaped frames, and a mean value of brightness values of the pixels in each of these specific areas was determined. These mean values were used as the brightness value of the mitochondria, and the brightness value of the cellular cytoplasm, respectively.
# This procedure of obtaining the fluorescence image was repeated under the same conditions, and the brightness values of the mitochondria and the cellular cytoplasm were measured. FIG. 8(B) is the actual 50th fluorescence image, and FIG. 8(C) is the actual 150th fluorescence image obtained. It can be seen from FIG. 8 that the fluorescence image indeed undergoes changes as described in the First Embodiment with reference to FIG. 2.
substance,measurement,setting,value
Rhodamin 123 [RH123],frame number in which the brightness value of the cellular cytoplasm has the peak (functional depression of the mitochondria complete),"argon laser (488 nm) of a predetermined intensity, repeated imaging, FIG. 9(A)",50
same,frame number in which the brightness value of the cellular cytoplasm has the peak,"laser beam having a weaker intensity than in FIG. 9(A), otherwise same conditions, FIG. 9(B)",70
